Data: patent US20160265061A1, “COMPOSITION FOR DIAGNOSING OVARIAN CANCER METASTASIS BY USING CPG METHYLATION IN GENE, AND USE THEREOF” (EWHA UNIVERSITY - INDUSTRY COLLABORATION FOUNDATION, priority 2013, published 2016)

Tested on: SK-OV-3 cell line
Assay: 5-aza-2′-deoxycytidine treatment of SK-OV-3 cell line, gene expression changes by qRT-PCR
Assay type: cell-based, Human
[1] = primary cell line SK-OV-3 treated with 5, 10 and 20 μM for 3 days, qRT-PCR normalized to GAPDH

Which results are given for `Nc1ncn([C@H]2C[C@H](O)[C@@H](CO)O2)c(=O)n1` [5-aza-2′-deoxycytidine]?
changes in expressions of the three genes (ADAM12, NTN4 and PTGS2) (cell line SK-OV-3, treatment for 3 days, FIGS. 12 to 14): increased; increase in ADAM12 gene expression (cell line SK-OV-3 treated with 5, 10 and 20 μM for 3 days, qRT-PCR normalized to GAPDH): about 2 fold; increase in NTN4 gene expression [1]: about 2 fold; increase in PTGS2 gene expression [1]: about 2 fold
